US9006224B2, “Neuroendocrine tumor treatment” (Novartis AG, priority 2005, dated 2015)

Tests used:
Type in all cases: cell-based
A549 line = experiment: Antiproliferative activity, methylene blue staining, A549 line
Method: (§1) Subsequently, a two-fold dilution series of each compound (an mTOR inhibitor other than Compound A or a known chemotherapeutic agent) is made in separate tubes (starting at 8× the IC50 of each compound) either alone or in paired combinations, and the dilutions are added to the wells.
(§2) The cells are then re-incubated for 3 days. Methylene blue staining is performed on day 4 and the amount of bound dye (proportional to the number of surviving cells that bind the dye) determined. IC50s are subsequently determined using the Calcusyn program, which provides a measure of the interaction, namely the so-called non-exclusive combination index (CI), where: CI˜1=the interaction is nearly additive; 0.85-0.9=slight synergism; <0.85=synergy.

KB-31 = experiment: Antiproliferative activity, methylene blue staining, KB-31 line
Method: as §1, §2

HCT116 = experiment: Antiproliferative activity, methylene blue staining, HCT116 line
Method: as §1, §2

[1] = test system: A cell line, e.g. A549, KB-31 and HCT116 lines; experiment: Antiproliferative activity in combination with other agents (Calcusyn combination index); details: e.g. with somastatin or a somastatin analogue, 3 days incubation, methylene blue staining
Method: as §1, §2

[2] = test system: cells which are otherwise resistant to endocrine agent treatment; experiment: In vitro studies: restoring activity of endocrine agents in resistant cells
From the text: Several studies have implicated aberrant activity of the Akt kinase as a significant mechanism by which breast cancer tumors are unresponsive to endocrine therapy.

IC50 (A549 line): low nM range
IC50 (KB-31): micromolar range
IC50 (HCT116): micromolar range
SMILES: CO[C@H]1C[C@@H]2CC[C@@H](C)[C@@](O)(O2)C(=O)C(=O)N2CCCC[C@H]2C(=O)O[C@H]([C@H](C)C[C@@H]2CC[C@@H](OCCO)[C@H](OC)C2)CC(=O)[C@H](C)/C=C(\C)[C@@H](O)[C@@H](OC)C(=O)[C@H](C)C[C@H](C)/C=C/C=C/C=C/1C [Compound A, 40-O-(2-hydroxyethyl)-rapamycin]
antiproliferative activity in combination with another chemotherapeutic agent [1]: interesting antiproliferative activity
restoration of activity of endocrine agents (estrogen inhibitors and/or aromatase inhibitors) [2]: able to restore activity of endocrine agents
